According to patent US20260217701A1, “SELECTIVE BET INHIBITORS AND USES THEREOF” (Tay Therapeutics Limited, priority 2022, published 2026):
“And” between values parts separate entries of the source, which are not always exact repeats. Identical values can stand only once.

Tested on: imiquimod-induced psoriasis
Experiment: Imiquimod-induced psoriasis model
Assay type: in vivo, mice
Set-up: Spleen Weight / Spleen Weight Ratio: unit not given here
Settings: for PASI Scores: IMI + Clobetasol 0.05%; for Mean scores of the presence of erythema on the skin of animals at the area of induction of psoriasis / Mean scores of the presence of induration on the skin of animals at the area of induction of psoriasis / Mean scores of the presence of peeling on the skin of animals at the area of induction of psoriasis: mean ± SEM
Text: Imiquimod-induced psoriasis is a model of psoriasis in mice that induces psoriasis-like dermatitis. The pathology closes resembles human plaque-type psoriasis and is a valuable tool for testing new therapies against psoriasis. […] Compound A was formulated in a 5% DMSO/40% PEG-400/55% (0.9% NaCl w/v water) solution (Table 2F). Experimental groups for the study are outlined in Table 4. Prior to study initiation, the backs of all animals in the study were depilated to allow for induction of psoriasis and monitoring of disease progression.
Once assigned to experimental groups, on Day 1 and continuing through Day 14, topical imiquimod (IMI; Aldara™ containing 5% Imiquimod) was administered to the dorsal depilated animals, and animals in group 1 received topical administration of Excipial® hydrocream (65 mg). […] Clobetasol was applied topically for animals in group 11.
Body weights were recorded three times a week from Day 1 to Day 8, and daily from Day 8 until the study end at Day 15. At termination on D15 the spleen weight ratio was determined. Disease severity was assessed using the psoriasis area severity index (PASI) daily from Day 8 until study completion on Day 15. The PASI score was calculated based on three parameters (presence of erythema, induration of the skin, and peeling of the skin at the area of induction) on a scale of 0 to 4 (0=no more or absence, 1=low, 2=moderate, 3=high, 4=severe). The PASI score for each animal was calculated as the sum of the score of each parameter measured. The score of the use of enrichment (SUE) was also assessed daily from Day 8 to Day 15. At study completion on Day 15, animal behavior was evaluated using an open field to assess distance travelled, number scratching, and licking and rearing performed in 10 minutes. Upon study termination animals were sacrificed, the spleen was excised and weighed, and blood samples were collected. Serum was isolated from the blood sample for cytokine and other biomarker analysis. IL-1B, IL-6, IL-17, and TNF-α assayed using simple plex technique on an ELLA automated immunoassay system. IL-22 and IL-23 were assayed by ELISA.
The imiquimod-induced model of psoriasis was used to assess the efficacy of Compound A in treating psoriasis. […] Treatment started on Day 8 after induction so reference to day 1 of treatment is to Day 8 and day 7 of treatment is to Day 14.

[1] = IMI-psoriasis model, behavioral evaluation D15, 0.05%, individual animals
[2] = IMI-psoriasis model, behavioral evaluation, 0.05%, individual animals
[3] = IMI-psoriasis model, mice, 0.05%, individual animals
[4] = IMI + 0.05%, D8 (before start of treatment)

C[C@H]1C[C@H]2[C@@H]3CCC4=CC(=O)C=C[C@]4(C)[C@@]3(F)[C@@H](O)C[C@]2(C)[C@@]1(O)C(=O)CCl [Clobetasol, reference compound]
Body Weight D1 (IMI + 0.05%, Day 1 (before treatment start on Day 8), individual animals): 17.07 and 17.52 and 19.31 and 18.57 and 18.72 and 16.56 and 17.64 and 16.77 | Body Weight D3 (IMI + 0.05%, Day 3 (before treatment start on Day 8), individual animals): 14.93 and 16.02 and 17.76 and 17.57 and 17.77 and 14.09 and 14.81 and 14.86 | Body Weight D5 (IMI + 0.05%, Day 5 (before treatment start on Day 8), individual animals): 16.15 and 15.56 and 18.21 and 17.74 and 16.72 and 15.29 and 15.64 and 15.11 | Body Weight D7 (IMI + 0.05%, Day 7 (before treatment start on Day 8), individual animals): 15.51 and 15.49 (2×) and 18.30 and 17.72 and 17.41 and 15.14 and 16.24 | Body Weight D8 (IMI + 0.05%, Day 8 (first day of treatment), individual animals): 15.82 and 15.39 and 18.05 and 17.68 and 16.64 and 14.96 and 16.14 and 14.67 | Body Weight D9 (IMI + 0.05%, Day 9, individual animals): 15.95 and 14.96 and 17.53 and 16.98 and 15.65 and 14.35 and 14.99 and 14.71 | Body Weight D10 (IMI + 0.05%, Day 10, individual animals): 15.11 and 14.48 and 17.43 and 16.38 and 15.37 and 14.04 and 14.71 and 14.32 | Body Weight D11 (IMI + 0.05%, Day 11, individual animals): 15.27 and 14.85 and 17.41 and 16.38 and 15.58 and 13.84 and 14.92 and 14.21 | Body Weight D12 (IMI + 0.05%, Day 12, individual animals): 14.64 and 14.74 and 17.02 and 15.95 and 15.45 and 13.69 and 15.73 and 14.31 | Body Weight D13 (IMI + 0.05%, Day 13, individual animals): 14.45 and 14.82 and 16.74 and 15.71 and 15.24 and 13.39 and 14.65 and 14.05 | Body Weight D14 (IMI + 0.05%, Day 14, individual animals): 14.55 and 14.89 and 16.65 and 15.49 and 15.08 and 13.55 and 14.66 and 14.04 | Body Weight D15 (IMI + 0.05%, Day 15, individual animals): 14.30 and 14.75 and 16.22 and 15.41 and 14.99 and 13.32 and 14.54 and 14.22 | MBWC D1-D8 (IMI + 0.05%, body weight change Day 1 to Day 8 (before treatment), individual animals): −1.25 and −2.13 and −1.26 and −0.89 and −2.08 and −1.60 and −1.50 and −2.10 | MBWC D8-D15 (IMI + 0.05%, body weight change Day 8 to Day 15 (treatment period), individual animals): −1.52 and −0.64 and −1.83 and −2.27 and −1.65 and −1.64 and −1.60 and −0.45 | PASI Scores (D8 (day treatment started), individual animals): 7 (5×) and 8 (3×) | PASI Scores (D9, individual animals): 6 (2×) and 4 (4×) and 5 (2×) | PASI Scores (D10, individual animals): 3 (5×) and 2 (2×) and 4 | PASI Scores (D11, individual animals): 0 (5×) and 1 and 2 (2×) | PASI Scores (D12, individual animals): 1 (6×) and 0 (2×) | PASI Scores (D13, individual animals): 1 (3×) and 0 (5×) | PASI Scores (D14, individual animals): 0 (7×) and 1 | PASI Scores (D15, individual animals): 0 (7×) and 1 | Use Enrichment D1 (IMI-psoriasis model, D1, 0.05%, per cage (two animals)): 4.0 | Use Enrichment D9 (IMI-psoriasis model, D9, 0.05%, per cage (two animals)): 2.0 and 1.5 and 1.0 | Use Enrichment D10 (IMI-psoriasis model, D10, 0.05%, per cage (two animals)): 4.0 and 3.5 and 3.0 | Use Enrichment D11 (IMI-psoriasis model, D11, 0.05%, per cage (two animals)): 4.0 and 3.0 | Use Enrichment D13 (IMI-psoriasis model, D13, 0.05%, per cage (two animals)): 4.0 and 3.5 | Use Enrichment D14 (IMI-psoriasis model, D14, 0.05%, per cage (two animals)): 4.0 | Use Enrichment D15 (IMI-psoriasis model, D15, 0.05%, per cage (two animals)): 4.0 | Number Licking [1]: 1 (2×) and 2 (4×) and 5 (2×) | Number Licking + Scratching [1]: 1 (2×) and 2 (4×) and 5 (2×) | Number Scratching [1]: 0 | Distance Traveled [2]: 9 m (2×) and 5 m and 10 m (3×) and 15 m and 16 m | Number Rearings [2]: 10 and 6 (2×) and 31 and 19 and 4 and 39 and 25 | Use Enrichment Mean D1-D8 (IMI-psoriasis model, mean D1-D8, 0.05%, per cage (two animals)): 2.50 and 2.75 and 2.25 | Use Enrichment Mean D8-D15 (IMI-psoriasis model, mean D8-D15, 0.05%, per cage (two animals)): 3.71 and 3.50 and 2.86 and 3.14 | Spleen Weight [3]: 39.92 and 30.38 and 50.46 and 44.29 and 37.25 and 36.61 and 35.08 and 34.69 | Spleen Weight Ratio [3]: 279.16 and 205.97 and 311.10 and 287.41 and 248.50 and 274.85 and 241.27 and 243.95 | Mean scores of the presence of erythema on the skin of animals at the area of induction of psoriasis [4]: 2.3 ± 0.2 | Mean scores of the presence of induration on the skin of animals at the area of induction of psoriasis [4]: 2.8 ± 0.2 | Mean scores of the presence of peeling on the skin of animals at the area of induction of psoriasis [4]: 2.4 ± 0.2 | Mean scores of the presence of erythema on the skin of animals at the area of induction of psoriasis (IMI + 0.05%, D9): 1.8 ± 0.2 | Mean scores of the presence of induration on the skin of animals at the area of induction of psoriasis (IMI + 0.05%, D9): 1.3 ± 0.2 | Mean scores of the presence of peeling on the skin of animals at the area of induction of psoriasis (IMI + 0.05%, D9): 1.8 ± 0.3 | Mean scores of the presence of erythema on the skin of animals at the area of induction of psoriasis (IMI + 0.05%, D10): 1.0 ± 0.2 | Mean scores of the presence of induration on the skin of animals at the area of induction of psoriasis (IMI + 0.05%, D10): 1.0 ± 0.0 | Mean scores of the presence of peeling on the skin of animals at the area of induction of psoriasis (IMI + 0.05%, D10): 0.9 ± 0.1 | Mean scores of the presence of erythema on the skin of animals at the area of induction of psoriasis (IMI + 0.05%, D11): 0.3 ± 0.2 | Mean scores of the presence of induration on the skin of animals at the area of induction of psoriasis (IMI + 0.05%, D11): 0.0 ± 0.0 | Mean scores of the presence of peeling on the skin of animals at the area of induction of psoriasis (IMI + 0.05%, D11): 0.4 ± 0.2 | Mean scores of the presence of erythema on the skin of animals at the area of induction of psoriasis (IMI + 0.05%, D12): 0.0 ± 0.0 | Mean scores of the presence of induration on the skin of animals at the area of induction of psoriasis (IMI + 0.05%, D12): 0.0 ± 0.0 | Mean scores of the presence of peeling on the skin of animals at the area of induction of psoriasis (IMI + 0.05%, D12): 0.8 ± 0.2 | Mean scores of the presence of erythema on the skin of animals at the area of induction of psoriasis (IMI + 0.05%, D13): 0.0 ± 0.0 | Mean scores of the presence of induration on the skin of animals at the area of induction of psoriasis (IMI + 0.05%, D13): 0.0 ± 0.0 | Mean scores of the presence of peeling on the skin of animals at the area of induction of psoriasis (IMI + 0.05%, D13): 0.4 ± 0.2 | Mean scores of the presence of erythema on the skin of animals at the area of induction of psoriasis (IMI + 0.05%, D14): 0.0 ± 0.0 | Mean scores of the presence of induration on the skin of animals at the area of induction of psoriasis (IMI + 0.05%, D14): 0.0 ± 0.0 | Mean scores of the presence of peeling on the skin of animals at the area of induction of psoriasis (IMI + 0.05%, D14): 0.1 ± 0.1 | Mean scores of the presence of erythema on the skin of animals at the area of induction of psoriasis (IMI + 0.05%, D15): 0.0 ± 0.0 | Mean scores of the presence of induration on the skin of animals at the area of induction of psoriasis (IMI + 0.05%, D15): 0.0 ± 0.0 | Mean scores of the presence of peeling on the skin of animals at the area of induction of psoriasis (IMI + 0.05%, D15): 0.1 ± 0.1 | Mean PASI Scores in IMI-Psoriasis Model (mice, IMI + 0.05%, D8 (before start of treatment)): 7.4 ± 0.2 | Mean PASI Scores in IMI-Psoriasis Model (mice, IMI + 0.05%, D9): 4.8 ± 0.3 | Mean PASI Scores in IMI-Psoriasis Model (mice, IMI + 0.05%, D10): 2.8 ± 0.2 | Mean PASI Scores in IMI-Psoriasis Model (mice, IMI + 0.05%, D11): 0.6 ± 0.3 | Mean PASI Scores in IMI-Psoriasis Model (mice, IMI + 0.05%, D12): 0.8 ± 0.2 | Mean PASI Scores in IMI-Psoriasis Model (mice, IMI + 0.05%, D13): 0.4 ± 0.2 | Mean PASI Scores in IMI-Psoriasis Model (mice, IMI + 0.05%, D14): 0.1 ± 0.1 | Mean PASI Scores in IMI-Psoriasis Model (mice, IMI + 0.05%, D15): 0.1 ± 0.1
